{
  "source": "patent US10561736B1",
  "about": "“Apoptosis inhibitor formulations for prevention of hearing loss” (Spiral Therapeutics, Inc., priority 2019, dated 2020)",
  "key": {"hERG": {"target": "T1, hERG (Homo sapiens, UniProt Q12809)", "T1 construct": "expressed in transfected cells; host or cells: CHO", "T1 sequence (Q12809 whole entry)": "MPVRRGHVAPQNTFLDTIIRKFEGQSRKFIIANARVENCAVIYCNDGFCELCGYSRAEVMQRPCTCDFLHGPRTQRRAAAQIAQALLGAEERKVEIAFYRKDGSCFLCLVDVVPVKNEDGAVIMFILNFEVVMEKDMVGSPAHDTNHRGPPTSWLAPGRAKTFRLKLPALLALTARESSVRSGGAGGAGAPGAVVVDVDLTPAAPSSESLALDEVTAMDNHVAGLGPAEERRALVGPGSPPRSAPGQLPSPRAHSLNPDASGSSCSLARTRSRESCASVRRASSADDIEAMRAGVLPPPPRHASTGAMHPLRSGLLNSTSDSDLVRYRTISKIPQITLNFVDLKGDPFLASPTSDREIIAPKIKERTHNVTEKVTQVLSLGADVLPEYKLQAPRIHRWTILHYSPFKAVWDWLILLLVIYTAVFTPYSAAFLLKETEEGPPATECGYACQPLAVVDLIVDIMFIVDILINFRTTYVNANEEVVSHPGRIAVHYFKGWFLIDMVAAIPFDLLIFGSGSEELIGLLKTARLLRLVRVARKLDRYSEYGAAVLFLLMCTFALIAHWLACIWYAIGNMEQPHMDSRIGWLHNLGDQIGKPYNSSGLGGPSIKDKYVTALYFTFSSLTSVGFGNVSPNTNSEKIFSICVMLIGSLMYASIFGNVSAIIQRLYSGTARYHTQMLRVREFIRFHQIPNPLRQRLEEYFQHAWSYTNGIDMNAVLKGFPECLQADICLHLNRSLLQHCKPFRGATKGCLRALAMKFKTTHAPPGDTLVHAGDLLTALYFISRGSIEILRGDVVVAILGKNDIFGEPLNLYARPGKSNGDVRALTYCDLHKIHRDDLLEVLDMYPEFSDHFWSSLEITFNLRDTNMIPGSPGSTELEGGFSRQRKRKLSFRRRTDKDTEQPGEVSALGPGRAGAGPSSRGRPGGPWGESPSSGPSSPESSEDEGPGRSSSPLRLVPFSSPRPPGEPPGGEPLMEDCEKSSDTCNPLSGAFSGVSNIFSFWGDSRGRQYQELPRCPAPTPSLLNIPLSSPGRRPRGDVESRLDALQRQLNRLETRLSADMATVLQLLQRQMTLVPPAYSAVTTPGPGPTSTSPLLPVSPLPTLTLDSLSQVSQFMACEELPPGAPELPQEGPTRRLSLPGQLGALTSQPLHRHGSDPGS", "experiment": "hERG automated patch clamp assay in hERG-CHO cells", "assay_type": "cell-based", "from_the_text": "The potential cardiotoxicity of LPT99 was investigated in an assay using the hERG-CHO cells transfected with the automated patch clamp assay."}, "[1]": {"experiment": "distribution in cochlea and plasma after a single IT administration", "assay_type": "in vivo", "details": "rat", "protocol": "Distribution of LPT99 was investigated in cochlea and plasma after a single IT administration in rats. The inhibitor was administered at 50, 100, or 200 μM (dissolved in 5% hydroxypropyl cyclodextrin in physiological serum)."}, "guinea pigs [2]": {"test_system": "guinea pigs", "experiment": "dermal sensitization range-finding pilot sub-study", "assay_type": "in vivo, guinea pig", "details": "topical 50 μl, 200, 400, or 797 μM", "protocol": "A GLP-compliant dermal sensitization study was conducted with LPT99 in guinea pigs. The objective was to assess potential dermal sensitization of LPT99 using the Buehler test (Buehler, Arch Dermatol. 1965, 91, 171-7).\nThe test article, LPT99, was in a neutral-pH, buffered, isotonic solution containing a thermoreversible compound. The vehicle control was buffered at neutral pH and formulated as for the test article; it contained POLOXAMER® 407, disodium phosphate dodecahydrate hydrogen, sodium dihydrogen phosphate dihydrate, sodium chloride, and water for injection.\nIn the range-finding pilot substudy, 4 guinea pigs (2 males and 2 females; Charles River, Stone Ridge, N.Y.) were dosed."}, "guinea pigs [3]": {"test_system": "guinea pigs", "experiment": "dermal sensitization main study (Buehler test)", "assay_type": "in vivo, guinea pig", "details": "topical 797 μM", "protocol": "A GLP-compliant dermal sensitization study was conducted with LPT99 in guinea pigs.\nThe test article, LPT99, was in a neutral-pH, buffered, isotonic solution containing a thermoreversible compound.\nThe main study consisted of 2 groups of 20 or 10 guinea pigs. […] Group 2 was 5 male and 5 female animals that were not dosed with LPT99 (Group 2) during the induction phase and served as naïve controls; Group 2 was challenged with LPT99 on Day 28. LPT99 was topically administered to the skin in the shaved scapula area in a volume of 50 μL on Study Days 0, 7, and 14 (induction doses), and on Day 28 (challenge dose). These observations and measurements were performed: Clinical observations (daily), Body weights (weekly), Draize scoring (24 and 48 hours after bandage removal on Days 29 and 30), Primary Dermal Irritation Index (PDII) scoring of extent of irritation according to the scale in. The PDII (post-challenge) was calculated for the test article or vehicle by dividing the sum of the Total Irritation Score by the number of observations (e.g., 3 days×6 animals=18 (number of observations)."}, "caspase 3": {"test_system": "caspase 3", "experiment": "CisPt-induced caspase 3 activation in HEI-OC1 cells", "assay_type": "cell-based", "protocol": "(§1) To identify off-target activities of LPT99, its selectivity against a panel of receptors (44 G-protein-coupled receptors [GPCR] and 4 non-GPCR), 4 ion channels, and 3 transporters were analyzed. The cell line, HEI-OC1 (house ear institute organ of Corti 1), which expresses several characteristic markers of the organ of Corti sensory cells (Kalinec, et al., Audiol. Neurootol. 2003, 8(4), 177-89), was used to evaluate the efficacy of LPT99 in preventing apoptosis due to […]. Cells were pre-incubated with LPT99, followed by […] for 24 hours."}, "[4]": {"test_system": "ion channels, including hERG potassium channels", "experiment": "effects on ion channels in CHO and HEK 293 cells", "assay_type": "cell-based", "from_the_text": "Torsadogenic refers to the development of torsade de Pointes (TdP) arrythimias."}, "HEI-OC1 cells [5]": {"test_system": "HEI-OC1 cells", "details": "cellular model of CisPt-induced apoptosis; IEB Symposium abstracts 2016; cited from earlier work"}, "HEI-OC1 cells [6]": {"test_system": "HEI-OC1 cells", "experiment": "release of mitochondrial Cytc in HEI-OC1 cells with CisPt (flow cytometry)", "assay_type": "cell-based", "details": "cellular model of CisPt-induced apoptosis", "protocol": "Flow cytometry was also used to characterize the effect of LPT99 in the release of mitochondrial Cytc in HEI-OC1 cells in vitro with CisPt prevention.\nThe effect of LPT99 on proliferation of non-apoptotic cells was studied. A549 cells were cultured in the presence of LPT99 for up to 6 days; the cell number was monitored by flow cytometry, and doubling time was calculated."}, "[7]": {"test_system": "auditory function (ototoxicity)", "experiment": "non-GLP auditory toxicity after intra-tympanic administration", "assay_type": "in vivo, rat", "details": "for ototoxicity: rat"}, "[8]": {"experiment": "cochlear distribution after IT administration (absorption)", "assay_type": "in vivo", "details": "rat; for concentration at 24 h: cochlea (cochlear homogenate), other: intratympanic (IT), read-out: mean cochlear LPT99 concentration; for peak mean cochlear LPT99 concentration: 1 hour", "from_the_text": "Cochleae were harvested and rinsed at several timepoints after intratympanic injection of drug product. Drug concentration (y axis) in cochlear homogenates is expressed as nanograms LPT99 per gram of cochlear homogenate. • (i) Absorption\nLPT99 cochlear distribution after IT administration was studied in rats. […] LPT99 concentration was quantified with an ultra-performance liquid chromatography tandem mass spectrometry (UPLC-ESI/MS/MS) system."}, "[9]": {"target": "serotonin receptor 5HT-2A (Homo sapiens, UniProt P28223)", "sequence (P28223 whole entry)": "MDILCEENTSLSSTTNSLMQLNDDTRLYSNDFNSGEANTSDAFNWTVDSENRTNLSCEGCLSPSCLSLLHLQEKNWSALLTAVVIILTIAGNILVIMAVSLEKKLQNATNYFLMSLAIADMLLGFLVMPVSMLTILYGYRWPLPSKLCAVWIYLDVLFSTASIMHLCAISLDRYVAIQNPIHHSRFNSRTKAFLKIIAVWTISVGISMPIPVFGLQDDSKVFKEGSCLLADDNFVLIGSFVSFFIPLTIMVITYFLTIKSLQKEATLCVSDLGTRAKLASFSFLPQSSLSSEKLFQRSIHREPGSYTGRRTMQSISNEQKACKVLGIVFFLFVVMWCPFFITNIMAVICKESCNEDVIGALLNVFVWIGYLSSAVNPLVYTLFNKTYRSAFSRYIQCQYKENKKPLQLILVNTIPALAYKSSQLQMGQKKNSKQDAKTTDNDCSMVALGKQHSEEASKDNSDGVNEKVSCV", "experiment": "off-target selectivity panel", "assay_type": "binding", "protocol": "as §1\n(§2) For 14 of the tested targets-adenosine receptor 3 (A3); cholecystokinin: cholecystokinin receptor 1 (CCK1); melatonin receptor (MT1); neurokinin (NK2 and NK3); opioid (kOP and mOP); serotonin receptors (5HT-1A, 5HT-2A, 5HT-2B and 5HT-7); and vasopressin (ViA; Na+channel site 2 and C1-GABA-gated channel)—the LPT99 affinity was >50%. At 1 μM, the inhibition of 13 of these targets was <50%, indicating a very low affinity with LPT99."}, "opioid (kOP)": {"target": "opioid (kOP) (Homo sapiens, UniProt P41145)", "sequence (P41145 whole entry)": "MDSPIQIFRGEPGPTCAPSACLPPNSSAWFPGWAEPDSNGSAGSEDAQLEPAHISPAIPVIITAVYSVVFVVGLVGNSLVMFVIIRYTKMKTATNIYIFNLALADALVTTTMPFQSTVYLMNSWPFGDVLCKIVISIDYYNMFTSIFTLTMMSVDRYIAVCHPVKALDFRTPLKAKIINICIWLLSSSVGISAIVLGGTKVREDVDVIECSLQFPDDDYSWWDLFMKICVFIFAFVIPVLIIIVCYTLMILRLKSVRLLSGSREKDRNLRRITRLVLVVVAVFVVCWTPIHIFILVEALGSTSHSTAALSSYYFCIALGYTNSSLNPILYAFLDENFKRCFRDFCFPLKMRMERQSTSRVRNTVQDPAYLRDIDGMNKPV", "experiment": "off-target selectivity panel", "assay_type": "binding", "protocol": "as §1, §2"}, "[10]": {"target": "adenosine receptor 3 (A3) (Homo sapiens, UniProt P0DMS8)", "sequence (P0DMS8 whole entry)": "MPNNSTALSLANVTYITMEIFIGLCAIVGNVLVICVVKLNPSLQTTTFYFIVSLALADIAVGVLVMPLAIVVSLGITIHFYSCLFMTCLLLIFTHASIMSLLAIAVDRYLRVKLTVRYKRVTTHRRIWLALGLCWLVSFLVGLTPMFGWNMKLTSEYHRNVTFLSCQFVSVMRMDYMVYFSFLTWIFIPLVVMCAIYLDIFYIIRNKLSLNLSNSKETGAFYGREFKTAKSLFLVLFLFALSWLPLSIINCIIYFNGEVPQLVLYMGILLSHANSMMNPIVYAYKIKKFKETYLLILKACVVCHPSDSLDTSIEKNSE", "experiment": "off-target selectivity panel", "assay_type": "binding", "protocol": "as §1, §2"}, "neurokinin (NK3)": {"target": "neurokinin (NK3) (Homo sapiens, UniProt P29371)", "sequence (P29371 whole entry)": "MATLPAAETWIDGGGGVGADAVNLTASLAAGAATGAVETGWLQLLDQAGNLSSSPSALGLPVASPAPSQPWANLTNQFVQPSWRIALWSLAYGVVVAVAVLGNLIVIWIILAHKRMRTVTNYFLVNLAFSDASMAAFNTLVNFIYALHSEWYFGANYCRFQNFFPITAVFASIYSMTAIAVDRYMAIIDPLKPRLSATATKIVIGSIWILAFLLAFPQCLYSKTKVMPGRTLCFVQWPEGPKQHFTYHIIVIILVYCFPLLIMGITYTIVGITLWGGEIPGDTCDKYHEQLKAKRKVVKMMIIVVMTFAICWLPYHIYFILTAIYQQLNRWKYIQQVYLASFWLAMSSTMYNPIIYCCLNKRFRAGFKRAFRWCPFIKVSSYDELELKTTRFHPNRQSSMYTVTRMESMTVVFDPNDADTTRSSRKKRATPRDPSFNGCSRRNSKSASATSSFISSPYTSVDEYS", "experiment": "off-target selectivity panel", "assay_type": "binding", "protocol": "as §1, §2"}},
  "note": "“Also recorded” adds a separate entry of the source. Where two headings read alike, the source gives them in different places.",
  "data": [
    {"smiles": "COc1ccc2[nH]cc(CCNC(=O)CC3C(=O)N(CCc4ccc(Cl)cc4Cl)CC(=O)N3CCc3cccs3)c2c1", "note": "(centres unmarked) [LPT99, 2-(4-(2,4-dichlorophenethyl)-3,6-dioxo-1-(2-(thiophen-2-yl)ethyl)piperazin-2-yl)-N-(2-(5-methoxy-1H-indol-3-yl)ethyl)acetamide]", "values": [
      {"measurement": "safety margin (hERG IC50 vs plasma detection limit 3.2 nM)", "setting": "hERG", "result": "> 1063"},
      {"measurement": "IC50", "setting": "hERG; hERG-CHO cells, automated patch clamp", "result": 3.4, "unit": "µM"},
      {"measurement": "detection of LPT99 in administered cochleae", "setting": "[1]; single IT 50, 100, or 200 μM in 5% hydroxypropyl cyclodextrin, 0.5 and 1 hour", "result": "detected in all administered cochleae"},
      {"measurement": "LPT99 concentrations in contralateral cochleae and plasma", "setting": "[1]; single IT, all time points", "result": "BLLQ"},
      {"measurement": "Draize scores (erythema and edema)", "setting": "guinea pigs [2]", "result": 0},
      {"measurement": "Irritant Category", "setting": "guinea pigs [3]", "result": "nonirritant (0)"},
      {"measurement": "mortality, clinical observations, body weights, or Draize scores", "setting": "guinea pigs [3]", "result": "No test-article-related changes"},
      {"measurement": "Draize scores after the challenge dose", "setting": "guinea pigs [3]; 24 or 48 hours", "result": "No Draize scores were >0"},
      {"measurement": "PDII score", "setting": "guinea pigs [3]; post-challenge", "result": 0},
      {"measurement": "caspase 3 activation in the cellular model", "setting": "caspase 3; cellular model of CisPt-induced apoptosis", "result": "reduced caspase-3 activation"},
      {"measurement": "IC50", "setting": "caspase 3; read-out: 50% inhibitory concentration (IC50) for caspase 3, HEI-OC1 cells pre-incubated with LPT99, then CisPt for 24 hours", "result": "5.2 ± 1.6", "unit": "µM"},
      {"measurement": "torsadogenic / cardiotoxic risk", "setting": "[4]", "result": "low torsadogenic risk; also recorded: low cardiotoxic risk"},
      {"measurement": "release of Cytc from mitochondria", "setting": "HEI-OC1 cells [5]", "result": "decreased release of Cytc from mitochondria"},
      {"measurement": "release of Cytc from mitochondria", "setting": "HEI-OC1 cells [6]", "result": "decreased release of Cytc from mitochondria"},
      {"measurement": "ABR thresholds in response to click or pure tones (8 to 40 kHz), latencies and amplitudes", "setting": "[7]; IT, in cyclodextrin, 100 or 200 μM, Day 3", "result": "did not produce a statistically significant increase in the thresholds"},
      {"measurement": "ototoxicity", "setting": "[7]; IT, 100 and 478 μM, follow-up experiment", "result": "no LPT99 ototoxicity"},
      {"measurement": "ototoxicity", "setting": "[7]; IT, 200, 400, and 797 μM", "result": "no ototoxicity"},
      {"measurement": "concentration at 24 h", "setting": "[8]; IT 50 μM", "result": 1.8, "unit": "ng/g"},
      {"measurement": "concentration at 24 h", "setting": "[8]; IT 100 μM", "result": 13.9, "unit": "ng/g"},
      {"measurement": "concentration at 24 h", "setting": "[8]; IT 200 μM", "result": 13.4, "unit": "ng/g"},
      {"measurement": "distribution after IT administration", "setting": "[8]; IT", "result": "distributes locally to the cochlea; also recorded: distributed to cochlea in a dose-dependent manner"},
      {"measurement": "peak mean cochlear LPT99 concentration", "setting": "[8]; IT 50 μM", "result": 328.5, "unit": "ng/g cochlea"},
      {"measurement": "peak mean cochlear LPT99 concentration", "setting": "[8]; IT 100 μM", "result": 491.3, "unit": "ng/g cochlea"},
      {"measurement": "peak mean cochlear LPT99 concentration", "setting": "[8]; IT 200 μM", "result": 611.1, "unit": "ng/g cochlea"},
      {"measurement": "inhibition at 1 µM", "setting": "[9]; 1 μM", "result": "< 50", "unit": "%"},
      {"measurement": "inhibition at 10 µM", "setting": "[9]; 10 μM, read-out: affinity (inhibition) 5HT-2A", "result": "> 50", "unit": "%"},
      {"measurement": "inhibition at 1 µM", "setting": "opioid (kOP); 1 μM", "result": "< 50", "unit": "%"},
      {"measurement": "inhibition at 10 µM", "setting": "opioid (kOP); 10 μM, read-out: affinity (inhibition) kOP", "result": "> 50", "unit": "%"},
      {"measurement": "inhibition at 1 µM", "setting": "[10]; 1 μM", "result": "< 50", "unit": "%"},
      {"measurement": "inhibition at 10 µM", "setting": "[10]; 10 μM, read-out: affinity (inhibition) A3", "result": "> 50", "unit": "%"},
      {"measurement": "inhibition at 1 µM", "setting": "neurokinin (NK3); 1 μM", "result": "< 50", "unit": "%"},
      {"measurement": "inhibition at 10 µM", "setting": "neurokinin (NK3); 10 μM, read-out: affinity (inhibition) NK3", "result": "> 50", "unit": "%"}
    ]}
  ]
}
